Where “and” joins values, the source holds several entries; their conditions need not be identical. Equal values may be shown once. Toxic doses and inconclusive results are not listed. Cut-off read from the data, not from the text of the source: active = T/C of 150% or more; inactive = T/C below 125%.
Tested on: L1210 leukemia ip in BDF1 mice, survival T/C
Assay: NCI In Vivo Anticancer Drug Screen. Data for tumor model L1210 Leukemia (intraperitoneal) in B6D2F1 (BDF1) mice
Details: endpoint: mean survival time, higher = longer survival
Outline: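 Read-out is survival time, reported as the treated-group measurement over the vehicle-control measurement.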

[1] = dose: 50.0 mg/kg/injection, schedule: Q01DX001 (ip), vehicle: saline
[2] = dose: 100.0 mg/kg/injection, schedule: Q01DX001 (ip), vehicle: saline
[3] = dose: 200.0 mg/kg/injection, schedule: Q01DX001 (ip), vehicle: saline
[4] = dose: 100.0 mg/kg/injection, schedule: Q01DX009 (ip), vehicle: saline with Tween-80
[5] = dose: 200.0 mg/kg/injection, schedule: Q01DX009 (ip), vehicle: saline with Tween-80
[6] = dose: 50.0 mg/kg/injection, schedule: Q01DX009 (ip), vehicle: saline with Tween-80
[7] = dose: 100.0 mg/kg/injection, schedule: Q04DX003 (ip), vehicle: saline with Tween-80
[8] = dose: 200.0 mg/kg/injection, schedule: Q04DX003 (ip), vehicle: saline with Tween-80
[9] = dose: 100.0 mg/kg/injection, schedule: Q01DX009 (ip), vehicle: Klucel (hydroxypropylcellulose) (HPC)
[10] = dose: 100.0 mg/kg/injection, schedule: Q04DX002 (ip), vehicle: Klucel (hydroxypropylcellulose) (HPC)
[11] = dose: 200.0 mg/kg/injection, schedule: Q01DX009 (ip), vehicle: Klucel (hydroxypropylcellulose) (HPC)
[12] = dose: 200.0 mg/kg/injection, schedule: Q04DX002 (ip), vehicle: Klucel (hydroxypropylcellulose) (HPC)
[13] = dose: 400.0 mg/kg/injection, schedule: Q01DX009 (ip), vehicle: Klucel (hydroxypropylcellulose) (HPC)
[14] = dose: 100.0 mg/kg/injection, schedule: Q01DX001 (ip), vehicle: carboxymethylcellulose (CMC)
[15] = dose: 200.0 mg/kg/injection, schedule: Q01DX001 (ip), vehicle: carboxymethylcellulose (CMC)
[16] = dose: 400.0 mg/kg/injection, schedule: Q01DX001 (ip), vehicle: carboxymethylcellulose (CMC)
[17] = dose: 25.0 mg/kg/injection, schedule: Q01DX009 (ip), vehicle: saline
[18] = dose: 50.0 mg/kg/injection, schedule: Q01DX009 (ip), vehicle: saline
[19] = dose: 100.0 mg/kg/injection, schedule: Q04DX003 (ip), vehicle: saline

Measured: T/C

CC(=O)c1cccc(OC(=O)c2ccccc2)c1
inactive: [1] 112 % of control | [2] 106 % of control | [3] 104 % of control | dose: 400.0 mg/kg/injection, schedule: Q01DX001 (ip), vehicle: saline 104 % of control

CC1C=CCP1(C)=O (stereo unspecified)
inactive: [4] 91 % of control | [5] 96 % of control | dose: 400.0 mg/kg/injection, schedule: Q01DX009 (ip), vehicle: saline with Tween-80 94 % of control

CCN(CC)P(=O)(OCC(C)C(C)=O)N(CCCl)CCCl (stereo unspecified)
inactive: dose: 100.0 mg/kg/injection, schedule: Q04DX003 (ip), vehicle: DMSO 115 % of control | dose: 200.0 mg/kg/injection, schedule: Q04DX003 (ip), vehicle: DMSO 113 % of control | dose: 400.0 mg/kg/injection, schedule: Q04DX003 (ip), vehicle: DMSO 112 % of control

CC(C)(C)c1ccc(Sc2cnccc2C(C)(C)C)cc1
inactive: dose: 87.5 mg/kg/injection, schedule: Q04DX003 (ip), vehicle: saline with Tween-80 97 % of control | dose: 175.0 mg/kg/injection, schedule: Q04DX003 (ip), vehicle: saline with Tween-80 102 % of control | dose: 350.0 mg/kg/injection, schedule: Q04DX003 (ip), vehicle: saline with Tween-80 94 % of control

Cc1c(/C=C/[N+](=O)[O-])cc(C)c2c3c(oc12)CCCC3
inactive: [1] 98 % of control | [2] 93 % of control | [3] 102 % of control

COCC(COC)CC1CO1 (stereo unspecified)
inactive: [6] 96 % of control | [4] 100 % of control | [5] 96 % of control

CCn1c(/C=N/NC(N)=S)cc2ccccc21
inactive: dose: 50.0 mg/kg/injection, schedule: Q01DX001 (ip), vehicle: other 104 % of control | dose: 100.0 mg/kg/injection, schedule: Q01DX001 (ip), vehicle: other 109 % of control | dose: 200.0 mg/kg/injection, schedule: Q01DX001 (ip), vehicle: other 104 % of control | dose: 400.0 mg/kg/injection, schedule: Q01DX001 (ip), vehicle: other 104 % of control

Cc1cc(C(=O)c2ccccn2)c2cccc(C(F)(F)F)c2n1
inactive: [6] 94 % of control | [4] 102 % of control | [7] 92 % of control | [5] 100 % of control | [8] 88 % of control

CC12CCC(C1)C(C)(C)/C2=N\O (stereo unspecified)
inactive: [9] 96 % of control | [10] 100 % of control | [11] 88 % of control | [12] 96 % of control | [13] 92 % of control | dose: 400.0 mg/kg/injection, schedule: Q04DX002 (ip), vehicle: Klucel (hydroxypropylcellulose) (HPC) 96 % of control

CCCCCCCCCCC1CCC2CCC3CCCC4CCC1C2C34 (stereo unspecified)
inactive: dose: 25.0 mg/kg/injection, schedule: Q04DX003 (ip), vehicle: acetone 96 % of control | dose: 50.0 mg/kg/injection, schedule: Q04DX003 (ip), vehicle: acetone 88 % of control | [2] 88 % of control | dose: 100.0 mg/kg/injection, schedule: Q04DX003 (ip), vehicle: acetone 86 % of control | [3] 90 % of control

CC(=O)Nc1ccc(Cc2ccc(NC(C)=O)cc2[N+](=O)[O-])c([N+](=O)[O-])c1
inactive: [14] 105 % of control | [15] 100 % of control | [16] 93 % of control

NC(CSCc1ccccc1)CSCc1ccccc1
inactive: [17] 101 % of control | [18] 100 % of control | dose: 100.0 mg/kg/injection, schedule: Q01DX009 (ip), vehicle: saline 105 % of control

O=[N+]([O-])c1ccccc1CN1c2ccccc2N=C2c3ccccc3CC21 (stereo unspecified)
inactive: dose: 100.0 mg/kg/injection, schedule: Q04DX003 (ip), vehicle: Klucel (hydroxypropylcellulose) (HPC) 88 % of control | dose: 200.0 mg/kg/injection, schedule: Q04DX003 (ip), vehicle: Klucel (hydroxypropylcellulose) (HPC) 91 % of control | dose: 400.0 mg/kg/injection, schedule: Q04DX003 (ip), vehicle: Klucel (hydroxypropylcellulose) (HPC) 100 % of control

C(=C\c1nc2ccccc2s1)/c1ccccc1
inactive: [19] 103 % of control | dose: 200.0 mg/kg/injection, schedule: Q04DX003 (ip), vehicle: saline 93 % of control | dose: 400.0 mg/kg/injection, schedule: Q04DX003 (ip), vehicle: saline 104 % of control

CCCC(O)Cc1c[nH]c(=O)[nH]c1=O (stereo unspecified)
inactive: [6] 103 % of control | [4] 98 % of control | [7] 95 % of control | [8] 98 % of control

O=C(O)c1ccccc1/C=N/NC(=O)C(O)(c1ccccc1)c1ccccc1
inactive: [14] 114 % of control | [15] 101 % of control | [16] 103 % of control

CC1(C)C(=O)NC(=O)C1(C)C
inactive: dose: 1.56 mg/kg/injection, schedule: Q03HX024 (ip), vehicle: saline 106 % of control | dose: 3.12 mg/kg/injection, schedule: Q03HX024 (ip), vehicle: saline 100 % of control | dose: 3.12 mg/kg/injection, schedule: Q04DX003 (ip), vehicle: saline 100 % of control | dose: 4.12 mg/kg/injection, schedule: Q01DX009 (ip), vehicle: saline 100 % of control | dose: 6.25 mg/kg/injection, schedule: Q01DX009 (ip), vehicle: saline 106 % of control | dose: 6.25 mg/kg/injection, schedule: Q03HX024 (ip), vehicle: saline 101 % of control | dose: 6.25 mg/kg/injection, schedule: Q04DX003 (ip), vehicle: saline 104 % of control | dose: 8.25 mg/kg/injection, schedule: Q01DX009 (ip), vehicle: saline 100 % of control | dose: 12.5 mg/kg/injection, schedule: Q01DX009 (ip), vehicle: saline 102 % of control | dose: 12.5 mg/kg/injection, schedule: Q03HX024 (ip), vehicle: saline 100 % of control | dose: 12.5 mg/kg/injection, schedule: Q04DX003 (ip), vehicle: saline 104 % of control and 108 % of control | dose: 16.5 mg/kg/injection, schedule: Q01DX009 (ip), vehicle: saline 92 % of control | dose: 18.75 mg/kg/injection, schedule: Q01DX001 (ip), vehicle: saline 105 % of control | [17] 106 % of control | dose: 25.0 mg/kg/injection, schedule: Q04DX003 (ip), vehicle: saline 102 % of control and 105 % of control | dose: 33.0 mg/kg/injection, schedule: Q01DX009 (ip), vehicle: saline 105 % of control | dose: 37.5 mg/kg/injection, schedule: Q01DX001 (ip), vehicle: saline 108 % of control | [18] 102 % of control | dose: 50.0 mg/kg/injection, schedule: Q04DX003 (ip), vehicle: saline 100 % of control and 102 % of control | dose: 66.0 mg/kg/injection, schedule: Q01DX009 (ip), vehicle: saline 90 % of control | dose: 75.0 mg/kg/injection, schedule: Q01DX001 (ip), vehicle: saline 108 % of control | [19] 94 % of control | dose: 150.0 mg/kg/injection, schedule: Q01DX001 (ip), vehicle: saline 103 % of control

COc1ccc(CC(=S)N2CCOCC2)cc1
inactive: [9] 104 % of control | [10] 98 % of control | [11] 102 % of control | [12] 95 % of control | [13] 96 % of control

— PubChem BioAssay AID248 (DTP/NCI, 2004)
